From patent US11285140B2, “Piperidin-4-yl azetidine derivatives as JAK1 inhibitors” (Incyte Corporation, priority 2010, dated 2022)

How the values were obtained:
Assay type in all cases: biochemical
[1] = biological target: human JAK1 (a.a. 837-1142); test: In vitro JAK kinase assay (HTRF, phosphorylation of biotinylated peptide), JAK1; conditions: measured at 1 mM ATP; JAK2 IC50 / JAK1 IC50
Procedure: (§1) Compounds herein were tested for inhibitory activity of JAK targets according to the following in vitro assay described in Park et al., Analytical Biochemistry 1999, 269, 94-104. The catalytic domains of human JAK1 (a.a. 837-1142), Jak2 (a.a. 828-1132) and Jak3 (a.a. 781-1124) with an N-terminal His tag were expressed using baculovirus in insect cells and purified. The catalytic activity of JAK1, JAK2 or JAK3 was assayed by measuring the phosphorylation of a biotinylated peptide. The phosphorylated peptide was detected by homogenous time resolved fluorescence (HTRF). […] Reactions were carried out at room temperature for 1 hr and then stopped with 20 μL 45 mM EDTA, 300 nM SA-APC, 6 nM Eu-Py20 in assay buffer (Perkin Elmer, Boston, Mass.). Binding to the Europium labeled antibody took place for 40 minutes and HTRF signal was measured on a Fusion plate reader (Perkin Elmer, Boston, Mass.).

[2] = biological target: human JAK1 (a.a. 837-1142) (Homo sapiens, UniProt P23458); test: as above; conditions: measured at 1 mM ATP
Procedure: as §1

[3] = biological target: human Jak2 (a.a. 828-1132) (Homo sapiens (Human), UniProt O60674); test: In vitro JAK kinase assay (HTRF, phosphorylation of biotinylated peptide), JAK2; conditions: measured at 1 mM ATP
Procedure: as §1

human Jak2 (a.a. 828-1132), sequence (O60674 828-1132): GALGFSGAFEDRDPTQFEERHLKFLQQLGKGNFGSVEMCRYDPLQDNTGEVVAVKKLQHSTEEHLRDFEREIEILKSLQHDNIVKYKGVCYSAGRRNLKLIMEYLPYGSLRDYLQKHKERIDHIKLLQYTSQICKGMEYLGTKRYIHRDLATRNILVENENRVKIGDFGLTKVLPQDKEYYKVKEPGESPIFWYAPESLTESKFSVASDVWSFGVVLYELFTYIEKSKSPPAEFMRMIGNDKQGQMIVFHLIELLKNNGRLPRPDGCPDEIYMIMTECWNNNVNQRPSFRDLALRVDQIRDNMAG

Compound | IC50 Ratio JAK2/JAK1 [1] | IC50 [2] [nM] | IC50 [3] [nM]
4-{3-(cyanomethyl)-3-[3-(7H-pyrrolo[2,3- d]pyrimidin-4-yl)-1H-pyrrol-1- yl]azetidin-1-yl}-N-[4- (trifluoromethyl)pyridin-3-yl]piperidine- 1-carboxamide [Example 165] | 10.4 | 5 to 20 | 50 to 100
4-{3-(cyanomethyl)-3-[4-(7H-pyrrolo[2,3- d]pyrimidin-4-yl)-1H-pyrazol-1- yl]azetidin-1-yl}-N-(2,5-difluorophenyl) piperidine-1-carboxamide [Example 174] | 7.1 | ≤ 5 | ≤ 10
4-{3-(cyanomethyl)-3-[4-(7H-pyrrolo[2,3- d]pyrimidin-4-yl)-1H-pyrazol-1- yl]azetidin-1-yl}-N-(2-methylphenyl) piperidine-1-carboxamide [Example 185] | 9.5 | ≤ 5 | 10 to 50
4-{3-(cyanomethyl)-3-[4-(7H-pyrrolo[2,3- d]pyrimidin-4-yl)-1H-pyrazol-1- yl]azetidin-1-yl}-N-(3,5-difluorophenyl) piperidine-1-carboxamide [Example 175] | 3.6 | ≤ 5 | ≤ 10
N#CCC1(n2cc(-c3ncnc4[nH]ccc34)cn2)CN(C2CCN(C(=O)C3Cc4ccccc4C3)CC2)C1 [Example 99, {1-[1-(2,3-dihydro-1H-inden-2-ylcarbonyl)piperidin-4-yl]-3-[4-(7H-pyrrolo[2,3-d]pyrimidin-4-yl)-1H-pyrazol-1-yl]azetidin-3-yl}acetonitrile] | 5.6 | 5 to 20 | 10 to 50
N#CCC1(n2cc(-c3ncnc4[nH]ccc34)cn2)CN(C2CCN(Cc3ccc(F)cc3F)CC2)C1 [Example 217, {1-[1-(2,4-difluorobenzyl)piperidin-4-yl]-3-[4-(7H-pyrrolo[2,3-d]pyrimidin-4-yl)-1H-pyrazol-1-yl]azetidin-3-yl}acetonitrile] | 5.8 | 5 to 20 | 10 to 50
CC(C)(C)C(=O)Nc1cc(CN2CCC(N3CC(CC#N)(n4cc(-c5ncnc6[nH]ccc56)cn4)C3)CC2)ccn1 [Example 235, N-{4-[(4-{3-(cyanomethyl)-3-[4-(7H-pyrrolo[2,3-d]pyrimidin-4-yl)-1H-pyrazol-1-yl]azetidin-1-yl}piperidin-1-yl)methyl]pyridin-2-yl}-2,2-dimethylpropanamide] | 2.5 | 5 to 20 | 10 to 50
